In ChEMBL document CHEMBL1817634, “One-pot synthesis of pyrazoline derivatised carbazoles as antitubercular, anticancer agents, their DNA cleavage and antioxidant activities” (2011):
Converted amounts (≈) assume the structure as drawn. The source made the active and inactive calls. The rule behind the calls is not given here.

How the values were obtained:
[1] = system: A549; assay: Anticancer activity against human A549 cells assessed as cell growth at 80 ug/mL by sulforhodamine B assay; assay type: functional; settings: read-out: Activity
[2] = system: A549; assay: Anticancer activity against human A549 cells assessed as cell growth at 40 ug/mL by sulforhodamine B assay; assay type: functional; settings: read-out: Activity
[3] = system: A498; assay: Anticancer activity against human A498 cells assessed as cell growth at 40 ug/mL by sulforhodamine B assay; assay type: functional; settings: read-out: Activity
[4] = system: A549; assay: Anticancer activity against human A549 cells assessed as cell growth at 20 ug/mL by sulforhodamine B assay; assay type: functional; settings: read-out: Activity
[5] = system: A549; assay: Anticancer activity against human A549 cells assessed as cell growth at 10 ug/mL by sulforhodamine B assay; assay type: functional; settings: read-out: Activity
[6] = Antioxidant activity assessed as potassium ferric cyanide reducing power at 100 ug after 20 mins by spectrophotometry; assay type: functional
[7] = system: A498; assay: Anticancer activity against human A498 cells assessed as cell growth at 20 ug/mL by sulforhodamine B assay; assay type: functional; settings: read-out: Activity
[8] = system: A498; assay: Cytotoxicity against human A498 cells; assay type: functional
[9] = system: A549; assay: Cytotoxicity against human A549 cells; assay type: functional
[10] = Antioxidant activity assessed as potassium ferric cyanide reducing power at 50 ug after 20 mins by spectrophotometry; assay type: functional
[11] = Antioxidant activity assessed as potassium ferric cyanide reducing power at 10 ug after 20 mins by spectrophotometry; assay type: functional
[12] = system: A498; assay: Anticancer activity against human A498 cells assessed as cell growth at 80 ug/mL by sulforhodamine B assay; assay type: functional; settings: read-out: Activity
[13] = system: Nucleic Acid; assay: Induction of Escherichia coli DNA cleavage at 100 ug after 2 hrs by agarose gel electrophoresis; assay type: nucleic-acid assay
[14] = system: Mycobacterium tuberculosis; assay: Antitubercular activity against Mycobacterium tuberculosis H37Rv after 3 weeks by turbidity assay; assay type: functional; settings: 504 h
[15] = system: A498; assay: Anticancer activity against human A498 cells assessed as cell growth at 10 ug/mL by sulforhodamine B assay; assay type: functional; settings: read-out: Activity

SMILES | growth at 80 µg/mL [1] [%] | growth at 40 µg/mL [2] [%] | growth at 40 µg/mL [3] [%] | growth at 20 µg/mL [4] [%] | growth at 10 µg/mL [5] [%] | reducing power [6] [absorbance] | growth at 20 µg/mL [7] [%] | GI50 [8] [mg/L] | LC50 [8] [mg/L] | TGI [8] [mg/L] | GI50 [9] [mg/L] | LC50 [9] [mg/L] | TGI [9] [mg/L] | reducing power [10] [absorbance] | reducing power [11] [absorbance] | growth at 80 µg/mL [12] [%] | Activity [13] | MIC [14] [mg/L] | growth at 10 µg/mL [15] [%]
CC1CC(c2ccc3[nH]c4c(c3c2)CCCC4)=NN1 (stereo not drawn) | 12.1 | 75.7 | 85 | 81.6 | 90.2 | 0.13 | 82 | 55.2 (≈ 218 µM) | > 70 | > 70 | 52.5 (≈ 207 µM) | > 70 | > 70 | 0.105 | 0.02 | 4 | inactive | 3.5 (≈ 13.8 µM) | 80
Clc1ccccc1C1CC(c2ccc3[nH]c4c(c3c2)CCCC4)=NN1 (stereo not drawn) | 12.1 | 75.7 | 97.4 | 81.6 | 90.2 | 0.295 | 100 | 62 (≈ 177 µM) | > 80 | > 80 | 51.6 (≈ 147 µM) | > 80 | > 80 | 0.121 | 0.004 | 16.2 | inactive | 5 (≈ 14.3 µM) | 100
CN[C@@H]1[C@H](O[C@H]2[C@H](O[C@H]3[C@H](O)[C@@H](O)[C@H](N=C(N)N)[C@@H](O)[C@@H]3N=C(N)N)O[C@@H](C)[C@]2(O)C=O)O[C@@H](CO)[C@H](O)[C@H]1O [STREPTOMYCIN] | – | – | – | – | – | – | – | – | – | – | – | – | – | – | – | – | – | 7.5 (≈ 12.9 µM) | –
Cc1ccc(C2CC(c3ccc4[nH]c5c(c4c3)CCCC5)=NN2)cc1 (stereo not drawn) | -28.4 | -18.5 | 96.2 | -2.9 | 11.9 | 0.17 | 99.2 | 54 (≈ 164 µM) | > 80 | > 80 | 74.3 (≈ 226 µM) | > 80 | > 80 | 0.11 | 0.05 | 4.6 | inactive | 12 (≈ 36.4 µM) | 99.3
COc1cccc2c1C(=O)c1c(O)c3c(c(O)c1C2=O)C[C@@](O)(C(=O)CO)C[C@@H]3O[C@H]1C[C@H](N)[C@H](O)[C@H](C)O1 [DOXORUBICIN] | -66.9 | -39.5 | -39.5 | 8.2 | 10.7 | – | 8.2 | < 10 | – | 32.4 (≈ 59.6 µM) | < 10 | – | 41.3 (≈ 76 µM) | – | – | -66.9 | – | – | 10.7
O=[N+]([O-])c1ccc(C2CC(c3ccc4[nH]c5c(c4c3)CCCC5)=NN2)cc1 (stereo not drawn) | 4.2 | 50.4 | 97.7 | 64.4 | 70.1 | 0.675 | 100 | 56.2 (≈ 156 µM) | > 80 | > 80 | 38.2 (≈ 106 µM) | > 80 | > 80 | 0.475 | 0.195 | 4.1 | Active | 10 (≈ 27.7 µM) | 100
NC(=O)c1cnccn1 [PYRAZINAMIDE] | – | – | – | – | – | – | – | – | – | – | – | – | – | – | – | – | – | 10 (≈ 81.2 µM) | –
Oc1ccc(C2CC(c3ccc4[nH]c5c(c4c3)CCCC5)=NN2)cc1 (stereo not drawn) | 11.5 | 67.1 | 83 | 74.6 | 83.2 | 0.25 | 86 | 74.5 (≈ 225 µM) | > 70 | > 70 | 76.5 (≈ 231 µM) | > 70 | > 70 | 0.14 | 0.125 | 3.9 | inactive | 3.5 (≈ 10.6 µM) | 83
Oc1ccccc1C1CC(c2ccc3[nH]c4c(c3c2)CCCC4)=NN1 (stereo not drawn) | -28.4 | -18.5 | 97.7 | -2.9 | 11.9 | 0.246 | 99.5 | 62.3 (≈ 188 µM) | > 80 | > 80 | 75.7 (≈ 228 µM) | > 70 | > 70 | 0.137 | 0.118 | 16.5 | inactive | 4.5 (≈ 13.6 µM) | 99.3
Clc1ccc(C2CC(c3ccc4[nH]c5c(c4c3)CCCC5)=NN2)cc1 (stereo not drawn) | 11.5 | 67.1 | 97.5 | 74.6 | 83.2 | 0.303 | 100 | 72.7 (≈ 208 µM) | > 80 | > 80 | 47.6 (≈ 136 µM) | > 80 | > 80 | 0.191 | 0.011 | 31.7 | Active | 3.5 (≈ 10 µM) | 100
C(=C\C1CC(c2ccc3[nH]c4c(c3c2)CCCC4)=NN1)/c1ccccc1 (stereo not drawn) | 48.7 | 88.4 | 95.7 | 94.8 | 98.8 | 0.67 | 99.7 | 57 (≈ 167 µM) | > 80 | > 80 | 54 (≈ 158 µM) | > 80 | > 80 | 0.47 | 0.19 | 6 | inactive | 25 (≈ 73.2 µM) | 99.5
COc1ccc(C2CC(c3ccc4[nH]c5c(c4c3)CCCC5)=NN2)cc1 (stereo not drawn) | 15.3 | 69.4 | 97.7 | 76.2 | 81.6 | 0.673 | 100 | 55 (≈ 159 µM) | > 80 | > 80 | 56.2 (≈ 163 µM) | > 80 | > 80 | 0.473 | 0.193 | 4.2 | inactive | 10 (≈ 28.9 µM) | 98.3
Clc1cccc(C2CC(c3ccc4[nH]c5c(c4c3)CCCC5)=NN2)c1 (stereo not drawn) | 15.3 | 69.4 | 97.9 | 76.2 | 81.6 | 0.147 | 100 | 74.3 (≈ 212 µM) | > 80 | > 80 | 49.8 (≈ 142 µM) | > 80 | > 80 | 0.066 | 0.015 | 33.5 | inactive | 4.5 (≈ 12.9 µM) | 100
c1ccc(C2CC(c3ccc4[nH]c5c(c4c3)CCCC5)=NN2)cc1 (stereo not drawn) | 48.7 | 88.4 | 95.9 | 94.8 | 98.8 | 0.126 | 99.1 | 55.6 (≈ 176 µM) | > 80 | > 80 | > 80 | > 80 | > 80 | 0.102 | 0.01 | 3.9 | inactive | 12 (≈ 38 µM) | 100
